Columns and labels:
[1] = tested on: HeLa cells; test: Flow cytometry (FACS) uptake of NA constructs and fluorescently labeled sequences, HeLa; details: 1 µM cargo, 1 h, 37 °C, MEM+1% FBS, trypan blue quencher, triplicate
[2] = target: ganglioside GM1; test: ITC titration with GM1:DPC 1:5 bicelles; details: two-independent-binding-site model, pH 7.2 phosphate, 35 °C, read-out: K D toward GM1 (tagged NeutrAvidin)
[3] = tested on: Jurkat cells; test: Uptake in competition with galectin-1, flow cytometry; type: cell-based, human; details: only at concentrations orders of magnitude higher than serum galectin-1 level (6.7 nM)
[4] = cited from earlier work
Source text: Helenius and Pelkmans pointed out that multivalent binding/clustering of ganglioside GM1 is necessary to trigger lipid raft‐mediated/caveolar endocytosis,9 and the tetravalent nature of our model carrier–cargo complex is consistent with this observation. On the other hand, the number of copies of the carrier sequence required for endocytosis can be crucial, especially if the carrier–cargo complex is produced by recombinant synthesis. […] CFU‐Penetratin, which has ...

## NA(biotinyl‐PEG‐WYKYW)4 [tetravalent FITC-labeled NeutrAvidin construct with biotinyl-PEG-WYKYW]
[1]
  level of uptake by FACS: similar
[2]
  Kd: 14.5 ± 1.7 nM

## galectin‐1: protein binding terminal digalactosides, used as inhibitor
[3]
  inhibition of GM1–WYKYW interaction by galectin-1: competitive inhibitor of the GM1–WYKYW interaction
[4]
  affinity for terminal digalactosides: micromolar affinity

— PMC7029632, “Routing Nanomolar Protein Cargoes to Lipid Raft‐Mediated/Caveolar Endocytosis through a Ganglioside GM1‐Specific Recognition Tag” (Advanced Science, 2020)
